Source: patent US9918968B2, “Rapamycin analogs targeting proteasome function in the treatment of cancer” (THE BOARD OF REGENTS OF THE UNIVERSITY OF TEXAS SYSTEM, priority 2013, dated 2018)
Where two headings read alike, the source gives them in different places.

How the values were obtained:
[1] = biological target: chymotrypsin-like proteasome activity (Homo sapiens, UniProt P28074); details: read-out: IC50, chymotrypsin-like proteasome inhibition; cited from earlier work
[2] = system: A2780 ovarian cancer cells; details: read-out: IC50, proliferation; cited from earlier work
PC3 prostate cancer = details: read-out: IC50, proliferation; cited from earlier work
H460 = details: read-out: IC50, proliferation; cited from earlier work
LoVo colon cancer = details: read-out: IC50, proliferation; cited from earlier work
[3] = system: RPMI8226 multiple myeloma cancer; details: read-out: IC50, proliferation; cited from earlier work
[4] = system: HS-Sultan anaplastic non-Hodgkin lymphoma; details: read-out: IC50, proliferation; cited from earlier work
transplanted tumor = details: cited from earlier work; for proteasome inhibition in brain tissue: any time point
[5] = system: MM xenograft tumors (LAGκ-1A); details: 14 d, cited from earlier work
[6] = system: T1, human 20S proteasome, ChT-L peptidase; assay: ChT-L peptidase activity of purified human 20S proteasome (Suc-LLVY-MCA); assay type: biochemical
T1 construct: purchased Enzo LifeSciences
Experimental: Human purified proteasome complexes were purchased from Enzo LifeSciences or Boston Biochemicals (19S complex). BODIPY-casein (Invitrogen/Molecular Probes) was used as a model protein substrate, with increasing fluorescence of BODIPY labeled peptide products of degradation monitored for up to 8 hours at 37° C. The peptidase activity of the enzyme was measured as arbitrary intensity units of the released fluorescent group 7-amino-4-methylcoumarin (AMC) from peptide substrates, as described. […] Proteasome substrates, rapamycin, its derivatives, and competing peptides were stocked in DMSO and diluted 100-fold in the reaction mixtures. The Rpt5 and PA200 C-terminal peptides were synthesized in the Departmental Peptide Synthesis Core using the standard SPPS chemistry. To activate the latent 20S proteasome, 0.005% (final concentration) of sodium dodecyl sulfate (SDS) was used. […] The fluorescence of products was monitored every 2 minutes with a Fluoroskan Ascent plate reader. Reaction rates were calculated from smoothed linear segment of kinetic curves using OriginPro 8.6 (OriginLabs, Northampton, Mass.). For the determination of an inhibition type, at least six distinct substrate concentrations and two inhibitor concentrations were used. The kinetic parameters of inhibition were analyzed in terms of the Michaelis-Menten formalism using the enzyme kinetic module of SigmaPlot v.12 (Systat Software, Inc, San Jose, Calif.) to perform the respective calculations. […]
The in vitro assay for testing the ChT-L peptidase activity of the purified human 20S proteasome was performed as described above.

RPMI 8226 myeloma cells = assay: Live/dead cell count, RPMI 8226 myeloma cells; assay type: cell-based, human; details: 5 nM, 48 hrs
Experimental: (§1) Culture Collection; ATCC) were cultured according to ATCC specifications: HeLa.S3 cervical adenocarcinoma, MCF7 breast adenocarcinoma, MDA-MB-231 breast adenocarcinoma (representing triple negative breast cancer), and RPMI 8226 myeloma. The cells were grown in 24 or 12-well cell culture plates. When the cells reached about 60% confluency (surface-growing HeLa.S3,MCF7 and MDA-MB-231) or a density of about 7×10^5 (suspension-growing RPMI 8226), the inhibitors dissolved in DMSO or the solvent (DMSO) diluted in respective culture medium were added and the cells were further cultured for additional 48 hours. […] The final concentration of the solvent was 1% (vol/vol). The number of live and dead cells after the treatment was approximated with calcein AM and ethidium homodimer (LiveDead test, Invitrogen) according to manufacturer's protocol, or by a Trypan Blue exclusion assay. In short, the cells after the treatment were washed three times with PBS and overlaid (surface-growing) or mixed (suspension-growing) with 4 microM calcein AM and 2 microM ethidium homodimer in PBS. Fluorescence of calcein and DNA-bound ethidium homodimer was measured with Fluoroskan Ascent plate reader, at 485 nm (excitation)/538 nm (emission) and 530 nm/619 nm, respectively. The cell counts were approximated using standard curves of live and digitonin-killed cells prepared for each strain. Alternatively, after cell treatment the medium was removed, the surface growing cells were overlaid with Trypan Blue solution, and the colorless (live) and blue-colored (dead) cells were counted under the inverted microscope.

[7] = system: HeLa.S3 cervical carcinoma cells; assay: Live/dead cell count, HeLa.S3 cells; assay type: cell-based, human; details: 48 hrs
Experimental: as §1

[8] = system: MCF7 breast carcinoma cells; assay: Live/dead cell count, MCF7 cells; assay type: cell-based, human; details: 100 nM bortezomib
Experimental: as §1, with “In short, the cells after the treatment were washed three times with PBS and overlaid (surface-growing) or mixed (suspension-growing) with 4 microM calcein AM and 2 microM ethidium homodimer in PBS.” left out, “The cell counts were approximated using standard curves of live and digitonin-killed cells prepared for each strain.” left out

[9] = system: MDA-MB-231 (triple-negative breast cancer) cells; assay: Viability/growth of MDA-MB-231 cells; assay type: cell-based, human; details: Homo sapiens, MDA-MB-231; 24 hours, drug alone; read-out: EC50 (concentration required to exclude 50% of cells)
Experimental: The cells were grown in 24 or 12-well cell culture plates. […] The final concentration of the solvent was 1% (vol/vol). The number of live and dead cells after the treatment was approximated with calcein AM and ethidium homodimer (LiveDead test, Invitrogen) according to manufacturer's protocol, or by a Trypan Blue exclusion assay. In short, the cells after the treatment were washed three times with PBS and overlaid (surface-growing) or mixed (suspension-growing) with 4 microM calcein AM and 2 microM ethidium homodimer in PBS. […] The cell counts were approximated using standard curves of live and digitonin-killed cells prepared for each strain. Alternatively, after cell treatment the medium was removed, the surface growing cells were overlaid with Trypan Blue solution, and the colorless (live) and blue-colored (dead) cells were counted under the inverted microscope.

CC(C)C[C@H](NC(=O)[C@@H](NC(=O)c1cccc(-c2ccccc2)n1)[C@@H](C)O)B(O)O [Delanzomib]
IC50 [1]: 3.8 nM
IC50 [2]: 13.7 nM
IC50 (PC3 prostate cancer): 22.2 nM
IC50 (H460): 34.2 nM
IC50 (LoVo colon cancer): 11.3 nM
IC50 [3]: 5.6 nM
IC50 [4]: 8.2 nM
proteasome inhibition in brain tissue (transplanted tumor): No proteasome inhibition is detected
maximum apoptotic signal versus bortezomib (transplanted tumor; caspase-3 and 7 activity in tumor, equiactive doses): 2.5 fold
tumors smaller than control ([5]; twice weekly 3 mg/kg i.v.): approximately 8 times
tumors smaller than control ([5]; twice weekly 10 mg/kg orally): ~12 times

CC(C)C[C@H](NC(=O)[C@H](Cc1ccccc1)NC(=O)c1cnccn1)B(O)O [bortezomib]
remaining ChT-L activity ([6]; 5 nM BZ alone): 83%
remaining ChT-L activity ([6]; 50 nM bortezomib alone): 68%
dead cells (RPMI 8226 myeloma cells): 18%
remaining live cells (RPMI 8226 myeloma cells; 100% = live cells in DMSO control): 10%
dead cells, of total cell count ([7]; up to 100 nM bortezomib): up to 16%
changes in cell proliferation ([7]; up to 100 nM): did not induce significant changes
live cell count, of the control [8]: about 53%
EC50 [9]: 745 nM
proteasome inhibition in brain tissue (transplanted tumor): No proteasome inhibition is detected
incidence of CR (complete tumor regression) (transplanted tumor; at MTD of 1.2 mg/kg intravenously): 50%
maximally tolerated dose (MTD) (transplanted tumor; intravenously): 1.2 mg/kg
